Data as given in ChEMBL document CHEMBL2413073, “Efficient construction of novel D-ring modified steroidal dienamides and their cytotoxic activities” (Eur J Med Chem, 2013).
pIC50: −log10 of the molar value.

Experiments:
[1] = Cytotoxicity against human EC109 cells after 72 hrs by MTT assay; format: functional, cell-based; conditions: ECa-109, 72 h
MGC-803 = assay: Cytotoxicity against human MGC803 cells after 72 hrs by MTT assay; format: functional, cell-based; conditions: MGC-803, 72 h
MCF7 = assay: cells; conditions: Homo sapiens, MCF7, 72 h
Description: Cytotoxicity against human MCF7 cells after 72 hrs by MTT assay

SMMC-7721 = assay: Cytotoxicity against human SMMC7721 cells after 72 hrs by MTT assay; format: functional, cell-based; conditions: SMMC-7721, 72 h
PC-3 = assay: Cytotoxicity against human PC3 cells after 72 hrs by MTT assay; format: functional, cell-based; conditions: PC-3, 72 h

| Structure (SMILES) | pIC50 [1] | pIC50 (MGC-803) | pIC50 (MCF7) | pIC50 (SMMC-7721) | pIC50 (PC-3) |
| --- | --- | --- | --- | --- | --- |
| COc1cccc(/C=C2\C[C@H]3[C@@H]4CC=C5C[C@@H](O)CC[C@]5(C)[C@H]4CC[C@]3(C)\C2=C(\C#N)C(N)=O)c1 | 5.03 | 5.40 | 5.25 | 5.22 | 4.86 |
| CC(=O)O[C@H]1CC[C@@]2(C)C(=CC[C@@H]3[C@@H]2CC[C@]2(C)C(=C(/C#N)C(N)=O)/C(=C/c4ccccc4)C[C@@H]32)C1 | 4.93 | 5.51 | 5.13 | 5.30 | 4.89 |
| CC(=O)O[C@H]1CC[C@@]2(C)C(=CC[C@@H]3[C@@H]2CC[C@]2(C)C(=C(/C#N)C(N)=O)/C(=C/c4ccc(F)cc4)C[C@@H]32)C1 | 5.32 | 5.51 | 5.44 | 5.23 | 5.04 |
| CC(=O)O[C@H]1CC[C@@]2(C)C(=CC[C@@H]3[C@@H]2CC[C@]2(C)C(=C(/C#N)C(N)=O)/C(=C/c4ccc(Br)cc4)C[C@@H]32)C1 | 5.28 | 5.57 | 5.53 | 4.78 | 4.57 |
| CC(=O)O[C@H]1CC[C@@]2(C)C(=CC[C@@H]3[C@@H]2CC[C@]2(C)C(=C(/C#N)C(N)=O)/C(=C/c4ccccc4C#N)C[C@@H]32)C1 |  |  | 4.65 |  |  |
| CC(=O)O[C@H]1CC[C@@]2(C)C(=CC[C@@H]3[C@@H]2CC[C@]2(C)C(=C(/C#N)C(N)=O)/C(=C/c4ccc(Cl)c(Cl)c4)C[C@@H]32)C1 | 5.36 | 5.49 | 5.66 | 5.59 | 5.09 |
| C[C@]12CC[C@H](O)CC1=CC[C@@H]1[C@@H]2CC[C@]2(C)C(=C(/C#N)C(N)=O)/C(=C/c3ccc(F)cc3)C[C@@H]12 | 5.06 | 5.25 | 5.23 | 5.48 | 4.83 |
| CC(=O)O[C@H]1CC[C@@]2(C)C(=CC[C@@H]3[C@@H]2CC[C@]2(C)C(=C(/C#N)C(N)=O)/C(=C/c4ccc(C(C)C)cc4)C[C@@H]32)C1 | 5.00 | 5.96 | 4.81 | 5.03 | 4.87 |
| COc1cc(/C=C2\C[C@H]3[C@@H]4CC=C5C[C@@H](O)CC[C@]5(C)[C@H]4CC[C@]3(C)\C2=C(\C#N)C(N)=O)cc(OC)c1OC | 5.06 | 5.74 | 5.18 | 5.10 | 4.91 |
| CC(=O)O[C@H]1CC[C@@]2(C)C(=CC[C@@H]3[C@@H]2CC[C@]2(C)C(=C(/C#N)C(N)=O)/C(=C/c4ccccc4Cl)C[C@@H]32)C1 | 4.93 | 6.24 | 5.20 | 4.74 | 4.61 |
| CC(=O)O[C@H]1CC[C@@]2(C)C(=CC[C@@H]3[C@@H]2CC[C@]2(C)C(=C(/C#N)C(N)=O)/C(=C/c4ccccc4F)C[C@@H]32)C1 | 4.81 | 5.52 | 5.33 | 4.81 | 4.94 |
| CC(=O)O[C@H]1CC[C@@]2(C)C(=CC[C@@H]3[C@@H]2CC[C@]2(C)C(=C(/C#N)C(N)=O)/C(=C/c4ccc(C)cc4)C[C@@H]32)C1 | 4.92 | 5.09 | 5.20 | 4.73 | 4.64 |
| COc1cc(/C=C2\C[C@H]3[C@@H]4CC=C5C[C@@H](OC(C)=O)CC[C@]5(C)[C@H]4CC[C@]3(C)\C2=C(\C#N)C(N)=O)cc(OC)c1OC | 5.28 | 5.20 | 5.28 | 5.55 | 4.93 |
| CC(=O)O[C@H]1CC[C@@]2(C)C(=CC[C@@H]3[C@@H]2CC[C@]2(C)C(=C(/C#N)C(N)=O)/C(=C/c4cccc(Cl)c4)C[C@@H]32)C1 | 5.05 | 6.96 | 5.10 | 5.15 | 4.95 |
| O=c1[nH]cc(F)c(=O)[nH]1 [FLUOROURACIL] | 4.97 |  |  | 5.01 | 4.61 |
